Measurements: the supplement of paper PMC10307832

Assays:
Assay in all cases: relative viability (nuclei count vs DMSO), 5 days (fraction); higher = more cells survive
[1] = compound: COc1cc2ncn(-c3cc(OCc4ccccc4C(F)(F)F)c(C(N)=O)s3)c2cc1OC + C[C@]1(O)C[C@@H](c2nc(-c3ccc4ccc(-c5ccccc5)nc4c3)c3c(N)nccn32)C1 [Linsitinib] (partner 1 µM)
Method in brief: (§1)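 Medians of duplicate plates are given as relative viability. That measure is the nuclei count in treated wells divided by the count in vehicle wells. Counts were taken on 4× images of lung cancer cell lines in 1536-well plates, 5 days after pin-tool dosing the day after seeding with one drug alone or a fixed anchor-drug dose plus five library-drug doses (not always all listed) in √10 steps.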

[2] = compound: COc1cc2ncn(-c3cc(OCc4ccccc4C(F)(F)F)c(C(N)=O)s3)c2cc1OC + Cc1cc(Nc2cc(N3CCN(C)CC3)nc(Sc3ccc(NC(=O)C4CC4)cc3)n2)n[nH]1 [Tozasertib] (partner 0.1 µM)
Method in brief: as §1

[3] = compound: COc1cc2ncn(-c3cc(OCc4ccccc4C(F)(F)F)c(C(N)=O)s3)c2cc1OC + COc1cccc2cc(-c3nc([C@H]4CC[C@H](C(=O)O)CC4)n4ncnc(N)c34)[nH]c12 [OSI-027] (partner 0.5 µM)
Method in brief: as §1

[4] = compound: COc1cc2ncn(-c3cc(OCc4ccccc4C(F)(F)F)c(C(N)=O)s3)c2cc1OC + C[C@@H](Oc1cc(-c2cnn(C3CCNCC3)c2)cnc1N)c1c(Cl)ccc(F)c1Cl [Crizotinib] (partner 1 µM)
Method in brief: as §1

| Cell Line | relative viability ([1]; first compound 0.05 µM) | relative viability ([1]; first compound 0.1581 µM) | relative viability ([1]; first compound 0.5 µM) | relative viability ([1]; first compound 1.581 µM) | relative viability ([1]; first compound 5 µM) | relative viability ([2]; first compound 0.05 µM) | relative viability ([2]; first compound 0.1581 µM) | relative viability ([2]; first compound 0.5 µM) | relative viability ([2]; first compound 1.581 µM) | relative viability ([2]; first compound 5 µM) | relative viability ([3]; first compound 0.05 µM) | relative viability ([3]; first compound 0.1581 µM) | relative viability ([3]; first compound 0.5 µM) | relative viability ([3]; first compound 1.581 µM) | relative viability ([3]; first compound 5 µM) | relative viability ([4]; first compound 0.05 µM) | relative viability ([4]; first compound 0.1581 µM) | relative viability ([4]; first compound 0.5 µM) | relative viability ([4]; first compound 1.581 µM) | relative viability ([4]; first compound 5 µM) |
| --- | --- | --- | --- | --- | --- | --- | --- | --- | --- | --- | --- | --- | --- | --- | --- | --- | --- | --- | --- | --- |
| NCI-H2087 | 0.995 | 0.981 | 0.307 | 0.168 | 0.195 | 0.255 | 0.253 | 0.144 | 0.126 | 0.114 | 0.747 | 0.471 | 0.181 | 0.101 | 0.0877 | 0.934 | 0.793 | 0.32 | 0.18 | 0.139 |
| LU99A | 0.502 | 0.522 | 0.224 | 0.212 | 0.161 | 0.224 | 0.246 | 0.247 | 0.241 | 0.246 | 0.304 | 0.32 | 0.231 | 0.176 | 0.178 | 0.59 | 0.526 | 0.579 | 0.244 | 0.197 |
| NCI-H1355 | 0.857 | 0.863 | 0.617 | 0.203 | 0.156 | 0.515 | 0.635 | 0.302 | 0.202 | 0.135 | 0.433 | 0.367 | 0.223 | 0.177 | 0.126 | 1.08 | 1.03 | 0.768 | 0.258 | 0.157 |
| NCI-H520 | 0.964 | 0.957 | 0.477 | 0.166 | 0.154 | 0.466 | 0.421 | 0.44 | 0.309 | 0.384 | 0.28 | 0.29 | 0.27 | 0.163 | 0.175 | 0.984 | 0.513 | 0.19 | 0.148 | 0.16 |
| NCI-H727 | 0.321 | 0.283 | 0.166 | 0.186 | 0.305 | 0.639 | 0.565 | 0.659 | 0.445 | 0.42 | 0.684 | 0.692 | 0.457 | 0.516 | 0.407 | 0.707 | 0.901 | 0.58 | 0.247 | 0.266 |
| NCI-H661 | 0.513 | 0.526 | 0.39 | 0.247 | 0.174 | 0.37 | 0.348 | 0.327 | 0.301 | 0.321 | 0.755 | 0.581 | 0.53 | 0.191 | 0.174 | 0.869 | 0.937 | 0.85 | 0.572 | 0.855 |
| NCI-H650 | 0.896 | 1.17 | 0.505 | 0.118 | 0.171 | 0.66 | 0.671 | 0.35 | 0.173 | 0.237 | 0.503 | 0.63 | 0.383 | 0.213 | 0.189 | 0.714 | 0.684 | 0.4 | 0.15 | 0.289 |
| 201T | 1.05 | 0.983 | 0.971 | 0.46 | 0.262 | 1.03 | 1.09 | 0.809 | 0.426 | 0.324 | 0.755 | 0.699 | 0.672 | – | 0.369 | 1.05 | 1.08 | 0.967 | 0.878 | 0.293 |
| PC-14 | 1.05 | 0.906 | 0.463 | – | 0.106 | 0.649 | 0.715 | 0.525 | 0.163 | 0.354 | 0.861 | 0.904 | 0.254 | 0.0302 | 0.027 | 0.83 | 0.828 | 0.564 | – | 0.411 |
| UMC-11 | 0.962 | 0.912 | 0.274 | 0.152 | 0.136 | 0.194 | 0.192 | 0.193 | 0.278 | 0.253 | 0.469 | 0.34 | 0.147 | 0.169 | 0.14 | 0.627 | 0.484 | 0.141 | 0.0823 | 0.102 |
| PC-3 [JPC-3] | 0.91 | 0.945 | 0.744 | 0.309 | 0.286 | 0.892 | 0.856 | 0.4 | 0.33 | 0.369 | 0.79 | 0.767 | 0.423 | 0.169 | 0.198 | 0.987 | 1.01 | 0.778 | 0.34 | 0.27 |
| LK-2 | 0.591 | 0.413 | 0.284 | 0.182 | 0.165 | 0.177 | 0.174 | 0.163 | 0.162 | 0.195 | 0.197 | 0.221 | 0.17 | 0.173 | 0.138 | 0.247 | 0.247 | 0.245 | 0.209 | 0.204 |
| COR-L23 | 0.887 | 0.761 | 0.332 | 0.0808 | 0.1 | 0.213 | 0.189 | 0.13 | 0.143 | 0.139 | 0.697 | 0.644 | 0.679 | 0.117 | 0.0946 | 0.667 | 0.671 | 0.3 | 0.118 | 0.12 |
| NCI-H1650 | – | – | – | – | – | 0.304 | 0.324 | 0.221 | 0.225 | 0.154 | 0.503 | 0.654 | 0.208 | 0.134 | 0.149 | 1.03 | 1.03 | 0.765 | 0.17 | 0.194 |
| NCI-H2170 | – | – | – | – | – | 0.619 | 0.745 | 0.309 | 0.193 | 0.26 | 0.703 | 0.667 | 0.365 | 0.173 | 0.183 | 1.25 | 1.15 | 0.599 | 0.268 | 0.258 |
| NCI-H1563 | 1.22 | 1.18 | 1.22 | 1.21 | 0.799 | – | – | – | – | – | 0.853 | 0.687 | 0.798 | 0.57 | 0.488 | 0.832 | 0.968 | 0.872 | 0.661 | 0.582 |
| EBC-1 | 0.798 | 0.889 | 0.446 | 0.169 | 0.134 | – | – | – | – | – | – | – | – | – | – | 0.19 | 0.204 | 0.17 | 0.169 | 0.14 |
| Calu-6 | 0.976 | 0.843 | 0.257 | 0.0961 | 0.0852 | – | – | – | – | – | – | – | – | – | – | 0.778 | 0.755 | 0.288 | 0.107 | 0.106 |
